# Assay results published in paper PMC6199309, “A therapeutic approach to pantothenate kinase associated neurodegeneration” (Nature Communications, 2018).
# Key:
# [1] = biological target: T1, PRKCD (Homo sapiens, UniProt Q05655); assay: KINOMEscan; type: binding; settings: read-out: %Ctrl @ 10000nM
# T1 construct: purchased DiscoverX KINOMEscan
# [2] = biological target: T2, PIK3CA(M1043I) (Homo sapiens, UniProt P42336, M1043I); assay: KINOMEscan; type: binding; settings: read-out: %Ctrl @ 10000nM
# T2 construct: purchased DiscoverX KINOMEscan
# [3] = biological target: T3, BRSK1 (Homo sapiens, UniProt Q8TDC3); assay: KINOMEscan; type: binding; settings: read-out: %Ctrl @ 10000nM
# T3 construct: purchased DiscoverX KINOMEscan
# [4] = biological target: T4, WEE1 (Homo sapiens, UniProt P30291); assay: KINOMEscan; type: binding; settings: read-out: %Ctrl @ 10000nM
# T4 construct: DNA label for qPCR (T7 phage fusion or DNA tag); purchased DiscoverX scanMAX; host or cells: E. coli BL21-derived (T7 phage) or HEK-293
# [5] = biological target: T5, MST4 (Homo sapiens, UniProt Q9P289); assay: KINOMEscan; type: binding; settings: read-out: %Ctrl @ 10000nM
# T5 construct: purchased DiscoverX KINOMEscan
# [6] = biological target: T6, EPHA1 (Homo sapiens, UniProt P21709); assay: KINOMEscan; type: binding; settings: read-out: %Ctrl @ 10000nM
# T6 construct: purchased DiscoverX KINOMEscan
# T6 sequence (P21709 26-976): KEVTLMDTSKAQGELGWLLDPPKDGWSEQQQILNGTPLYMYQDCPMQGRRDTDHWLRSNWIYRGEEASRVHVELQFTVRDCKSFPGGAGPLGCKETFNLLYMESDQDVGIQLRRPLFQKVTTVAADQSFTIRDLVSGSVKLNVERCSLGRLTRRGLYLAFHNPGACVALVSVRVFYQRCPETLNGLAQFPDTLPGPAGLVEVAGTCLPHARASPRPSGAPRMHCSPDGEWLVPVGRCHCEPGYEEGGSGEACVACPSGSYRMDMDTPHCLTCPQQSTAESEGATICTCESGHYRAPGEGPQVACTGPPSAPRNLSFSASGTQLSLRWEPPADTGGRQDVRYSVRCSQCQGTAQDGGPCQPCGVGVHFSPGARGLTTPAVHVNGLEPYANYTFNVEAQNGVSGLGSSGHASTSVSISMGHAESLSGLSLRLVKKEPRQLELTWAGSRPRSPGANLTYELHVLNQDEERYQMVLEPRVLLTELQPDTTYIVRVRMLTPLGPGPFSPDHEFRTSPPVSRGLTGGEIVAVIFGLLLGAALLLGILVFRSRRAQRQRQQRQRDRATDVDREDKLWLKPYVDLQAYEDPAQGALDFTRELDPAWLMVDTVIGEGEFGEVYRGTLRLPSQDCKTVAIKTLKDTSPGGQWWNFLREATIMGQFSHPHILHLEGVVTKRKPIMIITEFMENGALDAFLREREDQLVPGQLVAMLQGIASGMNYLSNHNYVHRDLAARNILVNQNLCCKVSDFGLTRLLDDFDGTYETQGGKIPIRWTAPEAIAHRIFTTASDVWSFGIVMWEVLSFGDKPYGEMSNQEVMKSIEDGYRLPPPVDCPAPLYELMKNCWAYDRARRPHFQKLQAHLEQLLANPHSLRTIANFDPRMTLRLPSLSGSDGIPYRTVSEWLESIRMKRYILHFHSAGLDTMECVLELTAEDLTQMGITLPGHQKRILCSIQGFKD
# [7] = biological target: T7, CDK3 (Homo sapiens, UniProt Q00526); assay: KINOMEscan; type: binding; settings: read-out: %Ctrl @ 10000nM
# T7 construct: purchased DiscoverX KINOMEscan
# T7 sequence (Q00526 whole entry): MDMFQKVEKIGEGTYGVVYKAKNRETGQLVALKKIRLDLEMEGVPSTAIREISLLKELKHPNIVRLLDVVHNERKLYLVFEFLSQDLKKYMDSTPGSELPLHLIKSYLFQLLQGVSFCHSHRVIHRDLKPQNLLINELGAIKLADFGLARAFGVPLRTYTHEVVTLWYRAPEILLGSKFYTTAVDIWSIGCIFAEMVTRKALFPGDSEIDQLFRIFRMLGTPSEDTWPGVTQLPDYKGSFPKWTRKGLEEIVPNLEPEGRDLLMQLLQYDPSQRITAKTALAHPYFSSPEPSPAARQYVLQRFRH
# [8] = biological target: T8, EPHB6 (Homo sapiens, UniProt O15197); assay: KINOMEscan; type: binding; settings: read-out: %Ctrl @ 10000nM
# T8 construct: purchased DiscoverX KINOMEscan
# [9] = biological target: T9, MERTK (Homo sapiens, UniProt Q12866); assay: KINOMEscan; type: binding; settings: read-out: %Ctrl @ 10000nM
# T9 construct: purchased DiscoverX KINOMEscan
# [10] = biological target: T10, TAOK3 (Homo sapiens, UniProt Q9H2K8); assay: KINOMEscan; type: binding; settings: read-out: %Ctrl @ 10000nM
# T10 construct: purchased DiscoverX KINOMEscan
# [11] = biological target: T11, SNARK (Homo sapiens, UniProt Q9H093); assay: KINOMEscan; type: binding; settings: read-out: %Ctrl @ 10000nM
# T11 construct: purchased DiscoverX KINOMEscan
# [12] = biological target: T12, INSR (Homo sapiens, UniProt P06213); assay: KINOMEscan; type: binding; settings: read-out: %Ctrl @ 10000nM
# T12 construct: purchased DiscoverX KINOMEscan
# [13] = biological target: T13, PLK4 (Homo sapiens, UniProt O00444); assay: KINOMEscan; type: binding; settings: read-out: %Ctrl @ 10000nM
# T13 construct: purchased DiscoverX KINOMEscan
# [14] = biological target: T14, CDK7 (Homo sapiens, UniProt P50613); assay: KINOMEscan; type: binding; settings: read-out: %Ctrl @ 10000nM
# T14 construct: purchased DiscoverX KINOMEscan
# [15] = biological target: T15, DDR1 (Homo sapiens, UniProt Q08345); assay: KINOMEscan; type: binding; settings: read-out: %Ctrl @ 10000nM
# T15 construct: purchased DiscoverX KINOMEscan
# [16] = biological target: T16, BUB1 (Homo sapiens, UniProt O43683); assay: KINOMEscan; type: binding; settings: read-out: %Ctrl @ 10000nM
# T16 construct: purchased DiscoverX KINOMEscan
# [17] = biological target: T17, DAPK1 (Homo sapiens, UniProt P53355); assay: KINOMEscan; type: binding; settings: read-out: %Ctrl @ 10000nM
# T17 construct: purchased DiscoverX KINOMEscan
# [18] = PAMPA-BBB; type: in vitro ADME; settings: BBB = Blood Brain Barrier, read-out: PAMPA-BBB, Avg Pe
# [19] = biological target: T18, DCAMKL3 (Homo sapiens, UniProt Q9C098); assay: KINOMEscan; type: binding; settings: read-out: %Ctrl @ 10000nM
# T18 construct: purchased DiscoverX KINOMEscan
# [20] = biological target: T19, ALK(C1156Y) (Homo sapiens, UniProt Q9UM73, C1156Y); assay: KINOMEscan; type: binding; settings: read-out: %Ctrl @ 10000nM
# T19 construct: purchased DiscoverX KINOMEscan
# [21] = biological target: T20, FER (Homo sapiens, UniProt P16591); assay: KINOMEscan; type: binding; settings: read-out: %Ctrl @ 10000nM
# T20 construct: purchased DiscoverX KINOMEscan
# [22] = biological target: T21, PHKG2 (Homo sapiens, UniProt P15735); assay: KINOMEscan; type: binding; settings: read-out: %Ctrl @ 10000nM
# T21 construct: purchased DiscoverX KINOMEscan
# [23] = biological target: T22, ROS1 (Homo sapiens, UniProt P08922); assay: KINOMEscan; type: binding; settings: read-out: %Ctrl @ 10000nM
# T22 construct: purchased DiscoverX KINOMEscan
# T22 sequence (P08922 28-2347): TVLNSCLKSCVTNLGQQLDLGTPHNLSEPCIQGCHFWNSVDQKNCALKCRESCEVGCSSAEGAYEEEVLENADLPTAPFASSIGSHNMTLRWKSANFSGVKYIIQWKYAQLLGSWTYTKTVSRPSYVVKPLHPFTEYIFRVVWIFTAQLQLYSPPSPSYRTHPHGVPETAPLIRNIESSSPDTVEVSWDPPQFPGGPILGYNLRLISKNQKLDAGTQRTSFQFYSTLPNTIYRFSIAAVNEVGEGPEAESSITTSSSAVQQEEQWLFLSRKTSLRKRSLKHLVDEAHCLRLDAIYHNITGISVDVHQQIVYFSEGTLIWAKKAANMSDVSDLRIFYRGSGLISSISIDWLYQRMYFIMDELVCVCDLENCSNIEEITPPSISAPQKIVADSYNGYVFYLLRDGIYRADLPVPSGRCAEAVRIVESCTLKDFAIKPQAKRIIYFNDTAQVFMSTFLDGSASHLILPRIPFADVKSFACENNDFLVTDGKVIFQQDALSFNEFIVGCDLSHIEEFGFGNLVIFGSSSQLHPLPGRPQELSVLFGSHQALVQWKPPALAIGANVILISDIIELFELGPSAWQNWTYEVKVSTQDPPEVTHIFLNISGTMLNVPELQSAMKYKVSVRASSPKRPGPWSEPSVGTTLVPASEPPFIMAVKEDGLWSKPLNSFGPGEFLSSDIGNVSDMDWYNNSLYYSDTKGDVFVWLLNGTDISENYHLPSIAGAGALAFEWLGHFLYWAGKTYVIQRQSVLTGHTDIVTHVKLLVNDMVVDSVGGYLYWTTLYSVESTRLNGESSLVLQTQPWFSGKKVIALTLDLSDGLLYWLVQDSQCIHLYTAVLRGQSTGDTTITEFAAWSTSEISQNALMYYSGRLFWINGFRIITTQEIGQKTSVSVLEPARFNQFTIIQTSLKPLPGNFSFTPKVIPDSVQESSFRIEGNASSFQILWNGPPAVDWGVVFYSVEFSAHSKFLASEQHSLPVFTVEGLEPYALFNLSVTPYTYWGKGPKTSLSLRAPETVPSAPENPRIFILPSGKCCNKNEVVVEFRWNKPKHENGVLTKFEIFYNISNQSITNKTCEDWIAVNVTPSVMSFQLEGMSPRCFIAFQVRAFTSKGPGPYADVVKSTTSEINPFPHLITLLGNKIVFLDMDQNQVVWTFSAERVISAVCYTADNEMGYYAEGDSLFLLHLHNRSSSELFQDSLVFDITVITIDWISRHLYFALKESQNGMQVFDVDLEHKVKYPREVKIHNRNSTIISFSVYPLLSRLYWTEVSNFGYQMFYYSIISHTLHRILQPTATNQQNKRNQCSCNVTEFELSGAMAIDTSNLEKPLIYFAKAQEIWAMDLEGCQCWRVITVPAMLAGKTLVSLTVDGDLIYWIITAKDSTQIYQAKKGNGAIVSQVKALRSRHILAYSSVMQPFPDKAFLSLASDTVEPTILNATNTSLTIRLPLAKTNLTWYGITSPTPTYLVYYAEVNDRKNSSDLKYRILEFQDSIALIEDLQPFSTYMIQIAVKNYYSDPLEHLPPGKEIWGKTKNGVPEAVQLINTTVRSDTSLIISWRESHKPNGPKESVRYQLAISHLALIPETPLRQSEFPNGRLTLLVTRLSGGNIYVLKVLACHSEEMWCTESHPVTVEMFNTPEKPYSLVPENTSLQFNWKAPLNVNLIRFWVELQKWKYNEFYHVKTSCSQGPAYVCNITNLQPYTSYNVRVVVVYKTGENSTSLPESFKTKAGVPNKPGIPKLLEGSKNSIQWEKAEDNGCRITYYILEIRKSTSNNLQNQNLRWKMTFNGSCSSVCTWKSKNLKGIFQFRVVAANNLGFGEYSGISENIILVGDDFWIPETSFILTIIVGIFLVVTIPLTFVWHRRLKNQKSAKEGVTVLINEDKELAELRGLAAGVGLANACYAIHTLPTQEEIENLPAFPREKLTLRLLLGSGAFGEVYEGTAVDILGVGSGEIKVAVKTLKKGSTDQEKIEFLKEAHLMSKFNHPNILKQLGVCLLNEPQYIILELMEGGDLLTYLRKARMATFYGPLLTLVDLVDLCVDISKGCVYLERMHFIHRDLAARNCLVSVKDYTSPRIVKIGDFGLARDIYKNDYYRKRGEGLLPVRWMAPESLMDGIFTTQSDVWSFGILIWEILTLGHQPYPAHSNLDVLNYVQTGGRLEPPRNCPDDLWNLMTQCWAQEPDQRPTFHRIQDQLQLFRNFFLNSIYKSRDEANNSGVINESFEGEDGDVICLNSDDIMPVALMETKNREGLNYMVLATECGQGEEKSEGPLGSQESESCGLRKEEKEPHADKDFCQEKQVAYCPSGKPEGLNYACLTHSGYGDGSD
# [24] = biological target: T23, EPHA5 (Homo sapiens, UniProt P54756); assay: KINOMEscan; type: binding; settings: read-out: %Ctrl @ 10000nM
# T23 construct: purchased DiscoverX KINOMEscan
# [25] = biological target: T24, TRPM6 (Homo sapiens, UniProt Q9BX84); assay: KINOMEscan; type: binding; settings: read-out: %Ctrl @ 10000nM
# T24 construct: DNA label for qPCR (T7 phage fusion or DNA tag); purchased DiscoverX scanMAX; host or cells: E. coli BL21-derived (T7 phage) or HEK-293
# [26] = biological target: T25, SGK3 (Homo sapiens, UniProt Q96BR1); assay: KINOMEscan; type: binding; settings: read-out: %Ctrl @ 10000nM
# T25 construct: purchased DiscoverX KINOMEscan
# [27] = biological target: T26, RET(V804L) (Homo sapiens, UniProt P07949, V804L); assay: KINOMEscan; type: binding; settings: read-out: %Ctrl @ 10000nM
# T26 construct: purchased DiscoverX KINOMEscan
# [28] = biological target: T27, HUNK (Homo sapiens, UniProt P57058); assay: KINOMEscan; type: binding; settings: read-out: %Ctrl @ 10000nM
# T27 construct: purchased DiscoverX KINOMEscan
# [29] = biological target: T28, PIK3CA(Q546K) (Homo sapiens, UniProt P42336, Q546K); assay: KINOMEscan; type: binding; settings: read-out: %Ctrl @ 10000nM
# T28 construct: purchased DiscoverX KINOMEscan
# [30] = biological target: T29, PLK3 (Homo sapiens, UniProt Q9H4B4); assay: KINOMEscan; type: binding; settings: read-out: %Ctrl @ 10000nM
# T29 construct: purchased DiscoverX KINOMEscan
# [31] = biological target: T30, RSK2(Kin.Dom.1-N-terminal) (Homo sapiens, UniProt P51812); assay: KINOMEscan; type: binding; settings: read-out: %Ctrl @ 10000nM
# T30 construct: RSK2(Kin.Dom.1-N-terminal); purchased DiscoverX KINOMEscan
# [32] = biological target: T31, TNNI3K (Homo sapiens, UniProt Q59H18); assay: KINOMEscan; type: binding; settings: read-out: %Ctrl @ 10000nM
# T31 construct: purchased DiscoverX KINOMEscan
# [33] = biological target: T32, LIMK1 (Homo sapiens, UniProt P53667); assay: KINOMEscan; type: binding; settings: read-out: %Ctrl @ 10000nM
# T32 construct: purchased DiscoverX KINOMEscan
# [34] = biological target: T33, TGFBR2 (Homo sapiens, UniProt P37173); assay: KINOMEscan; type: binding; settings: read-out: %Ctrl @ 10000nM
# T33 construct: purchased DiscoverX KINOMEscan
# [35] = biological target: T34, ERK2 (Homo sapiens, UniProt P28482); assay: KINOMEscan; type: binding; settings: read-out: %Ctrl @ 10000nM
# T34 construct: purchased DiscoverX KINOMEscan
# [36] = biological target: T35, DYRK2 (Homo sapiens, UniProt Q92630); assay: KINOMEscan; type: binding; settings: read-out: %Ctrl @ 10000nM
# T35 construct: purchased DiscoverX KINOMEscan
# [37] = biological target: T36, RSK4(Kin.Dom.2-C-terminal) (Homo sapiens, UniProt Q9UK32); assay: KINOMEscan; type: binding; settings: read-out: %Ctrl @ 10000nM
# T36 construct: RSK4(Kin.Dom.2-C-terminal); purchased DiscoverX KINOMEscan
# [38] = biological target: T37, PIK3CA(H1047Y) (Homo sapiens, UniProt P42336, H1047Y); assay: KINOMEscan; type: binding; settings: read-out: %Ctrl @ 10000nM
# T37 construct: purchased DiscoverX KINOMEscan
# T37 sequence (P42336 whole entry H1047Y): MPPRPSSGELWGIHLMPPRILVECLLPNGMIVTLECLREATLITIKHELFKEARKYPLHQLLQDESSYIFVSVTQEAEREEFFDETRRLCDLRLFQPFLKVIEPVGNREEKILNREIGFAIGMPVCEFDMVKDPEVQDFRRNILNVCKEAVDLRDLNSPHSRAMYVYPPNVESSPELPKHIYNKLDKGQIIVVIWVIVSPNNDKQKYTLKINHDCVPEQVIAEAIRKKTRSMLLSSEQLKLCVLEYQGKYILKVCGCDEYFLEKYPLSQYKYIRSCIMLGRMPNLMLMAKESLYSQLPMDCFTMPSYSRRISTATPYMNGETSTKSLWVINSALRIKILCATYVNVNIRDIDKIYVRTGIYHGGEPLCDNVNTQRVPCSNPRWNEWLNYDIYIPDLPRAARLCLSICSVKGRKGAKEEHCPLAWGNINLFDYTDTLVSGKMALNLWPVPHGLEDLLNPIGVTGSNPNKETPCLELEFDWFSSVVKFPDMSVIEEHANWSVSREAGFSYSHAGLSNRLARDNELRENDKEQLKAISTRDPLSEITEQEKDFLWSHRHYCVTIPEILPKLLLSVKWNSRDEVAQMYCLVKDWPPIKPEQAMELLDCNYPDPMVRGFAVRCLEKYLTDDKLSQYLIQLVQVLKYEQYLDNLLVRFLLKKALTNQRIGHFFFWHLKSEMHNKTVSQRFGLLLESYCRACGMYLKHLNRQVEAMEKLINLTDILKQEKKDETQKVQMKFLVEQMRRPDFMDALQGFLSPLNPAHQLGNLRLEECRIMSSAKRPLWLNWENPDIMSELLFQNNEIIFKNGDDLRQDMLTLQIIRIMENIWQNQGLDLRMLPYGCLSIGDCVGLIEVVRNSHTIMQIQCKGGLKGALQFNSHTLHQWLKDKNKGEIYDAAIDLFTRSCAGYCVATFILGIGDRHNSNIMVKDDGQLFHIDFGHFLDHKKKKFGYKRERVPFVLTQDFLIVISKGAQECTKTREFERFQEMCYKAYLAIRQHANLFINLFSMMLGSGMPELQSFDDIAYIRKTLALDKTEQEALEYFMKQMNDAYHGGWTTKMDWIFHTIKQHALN
# [39] = biological target: T38, CSK (Homo sapiens, UniProt P41240); assay: KINOMEscan; type: binding; settings: read-out: %Ctrl @ 10000nM
# T38 construct: purchased DiscoverX KINOMEscan
# T38 sequence (P41240 whole entry): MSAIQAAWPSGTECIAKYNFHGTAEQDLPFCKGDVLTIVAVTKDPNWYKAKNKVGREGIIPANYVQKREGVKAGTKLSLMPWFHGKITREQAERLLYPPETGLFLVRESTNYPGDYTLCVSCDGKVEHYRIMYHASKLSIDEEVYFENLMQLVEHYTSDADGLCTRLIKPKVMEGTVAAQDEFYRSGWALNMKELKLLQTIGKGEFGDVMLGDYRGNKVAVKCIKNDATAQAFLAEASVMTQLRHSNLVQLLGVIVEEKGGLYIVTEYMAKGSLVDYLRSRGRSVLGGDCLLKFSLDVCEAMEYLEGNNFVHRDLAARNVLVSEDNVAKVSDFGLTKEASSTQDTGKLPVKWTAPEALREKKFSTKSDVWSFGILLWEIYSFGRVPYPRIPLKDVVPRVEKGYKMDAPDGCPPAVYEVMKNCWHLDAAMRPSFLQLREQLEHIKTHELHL
# [40] = biological target: T39, EPHA3 (Homo sapiens, UniProt P29320); assay: KINOMEscan; type: binding; settings: read-out: %Ctrl @ 10000nM
# T39 construct: purchased DiscoverX KINOMEscan
# [41] = biological target: T40, NEK11 (Homo sapiens, UniProt Q8NG66); assay: KINOMEscan; type: binding; settings: read-out: %Ctrl @ 10000nM
# T40 construct: purchased DiscoverX KINOMEscan
structure (smiles),measurement,setting,value
"CC(C)c1ccc(CC(=O)N2CCN(c3ccc(C#N)nn3)CC2)cc1 [PZ-2891, 6-(4-(2-(4-isopropylphenyl)acetyl)piperazin-1-yl)pyridazine-3-carbonitrile]",remaining binding at 10 µM,[1],89%
same,remaining binding at 10 µM,[2],74%
same,remaining binding at 10 µM,[3],75%
same,remaining binding at 10 µM,[4],92%
same,remaining binding at 10 µM,[5],91%
same,remaining binding at 10 µM,[6],95%
same,remaining binding at 10 µM,[7],97%
same,remaining binding at 10 µM,[8],68%
same,remaining binding at 10 µM,[9],95%
same,remaining binding at 10 µM,[10],95%
same,remaining binding at 10 µM,[11],69%
same,remaining binding at 10 µM,[12],84%
same,remaining binding at 10 µM,[13],88%
same,remaining binding at 10 µM,[14],79%
same,remaining binding at 10 µM,[15],81%
same,remaining binding at 10 µM,[16],100%
same,remaining binding at 10 µM,[17],63%
same,Papp,[18],52 ×10⁻⁶ cm/s
same,remaining binding at 10 µM,[19],84%
same,remaining binding at 10 µM,[20],74%
same,remaining binding at 10 µM,[21],88%
same,remaining binding at 10 µM,[22],100%
same,remaining binding at 10 µM,[23],81%
same,remaining binding at 10 µM,[24],88%
same,remaining binding at 10 µM,[25],98%
same,remaining binding at 10 µM,[26],71%
same,remaining binding at 10 µM,[27],96%
same,remaining binding at 10 µM,[28],100%
same,remaining binding at 10 µM,[29],70%
same,remaining binding at 10 µM,[30],78%
same,remaining binding at 10 µM,[31],80%
same,remaining binding at 10 µM,[32],76%
same,remaining binding at 10 µM,[33],87%
same,remaining binding at 10 µM,[34],98%
same,remaining binding at 10 µM,[35],86%
same,remaining binding at 10 µM,[36],97%
same,remaining binding at 10 µM,[37],71%
same,remaining binding at 10 µM,[38],46%
same,remaining binding at 10 µM,[39],97%
same,remaining binding at 10 µM,[40],65%
same,remaining binding at 10 µM,[41],99%
